Data published in patent US20230150995A1, “HETEROARYL-METHYL SUBSTITUTED TRIAZOLES” (Hoffmann-La Roche Inc., priority 2020, published 2023).

What follows are compounds tested against T1, human V1a receptor (Homo sapiens, UniProt P37288) (assay: human V1a receptor binding study (3H-Vasopressin SPA, HEK293 membranes)). Conditions: membranes of HEK293 cells transiently transfected with human V1a receptor, Ki by Cheng-Prusoff, read-out: pKi (hV1a) (converted).
T1 construct: expressed in transfected cells; host or cells: HEK293 cells, transiently transfected; cell membranes
Experimental: The human V1a receptor was cloned by RT-PCR from total human liver RNA. The coding sequence was subcloned in an expression vector after sequencing to confirm the identity of the amplified sequence. […] Cell membranes were prepared from HEK293 cells transiently transfected with the expression vector and grown in 20 liter fermenters with the following protocol.
50 g of cells are re-suspended in 30 ml freshly prepared ice cold Lysis buffer (50 mM HEPES, 1 mM EDTA, 10 mM MgCl2 adjusted to pH=7.4+complete cocktail of protease inhibitor (Roche Diagnostics)). Homogenized with Polytron for 1 min and sonicated on ice for 2× 2 minutes at 80% intensity (Vibracell sonicator). The preparation is centrifuged 20 min at 500 g at 4° C., the pellet is discarded and the supernatant centrifuged 1 hour at 43′000 g at 4° C. (19′000 rpm). The pellet is re-suspended in 12.5 ml Lysis buffer+12.5 ml Sucrose 20% and homogenized using a Polytron for 1-2 min. The protein concentration is determined by the Bradford method and aliquots are stored at −80° C. until use. For binding studies 60 mg Yttrium silicate SPA beads (Amersham) are mixed with an aliquot of membrane in binding buffer (50 mM Tris, 120 mM NaCl, 5 mM KCl, 2 mM CaCl2, 10 mM MgCl2) for 15 minutes with mixing. 50 μl of bead/membrane mixture is then added to each well of a 96 well plate, followed by 50 μl of 4 nM 3H-Vasopressin (American Radiolabeled Chemicals). For total binding measurement 100 μl of binding buffer are added to the respective wells, for non-specific binding 100 μl of […] cold vasopressin and for compound testing 100 μl of a serial dilution of each compound in 2% DMSO. The plate is incubated 1 h at room temperature, centrifuged […] at 1000 g and counted on a Packard Top-Count. Non-specific binding counts are subtracted from each well and data is normalized to the maximum specific binding set at 100%. To calculate an IC 50 the curve is fitted using a non-linear regression model (XLfit) and the Ki is calculated using the Cheng-Prussoff equation.

T1 sequence (P37288 whole entry): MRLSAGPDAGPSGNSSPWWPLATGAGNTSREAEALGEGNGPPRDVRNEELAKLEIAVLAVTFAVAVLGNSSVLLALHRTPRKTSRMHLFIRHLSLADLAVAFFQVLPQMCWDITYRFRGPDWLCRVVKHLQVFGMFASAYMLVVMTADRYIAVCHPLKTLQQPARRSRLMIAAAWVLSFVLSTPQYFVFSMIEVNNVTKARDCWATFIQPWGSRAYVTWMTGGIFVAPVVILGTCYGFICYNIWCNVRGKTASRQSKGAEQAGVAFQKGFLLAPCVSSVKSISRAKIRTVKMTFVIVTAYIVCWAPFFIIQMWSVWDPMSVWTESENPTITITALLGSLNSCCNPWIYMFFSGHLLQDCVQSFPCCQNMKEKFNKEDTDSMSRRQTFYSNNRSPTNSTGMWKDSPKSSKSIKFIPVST

| Ki [nM] | Structure (SMILES) |
| --- | --- |
| 0.17 | Cc1cc(Cc2nnc([C@H]3CC[C@H](Oc4ccccn4)CC3)n2-c2ccc(Cl)cc2)no1 [Example 1, trans-3-[[4-(4-Chlorophenyl)-5-(4-pyridin-2-yloxycyclohexyl)-1,2,4-triazol-3-yl]methyl]-5-methyl-1,2-oxazole] |
| 0.229 | Clc1ccc(-n2c(Cc3ccon3)nnc2[C@H]2CC[C@H](Oc3ccccn3)CC2)cc1 [Example 2, trans-3-[[4-(4-Chlorophenyl)-5-(4-pyridin-2-yloxycyclohexyl)-1,2,4-triazol-3-yl]methyl]-1,2-oxazole] |
| 0.229 | Clc1ccc(-n2c(Cc3ccno3)nnc2[C@H]2CC[C@H](Oc3ccccn3)CC2)cc1 [Example 3, trans-5-[[4-(4-Chlorophenyl)-5-(4-pyridin-2-yloxycyclohexyl)-1,2,4-triazol-3-yl]methyl]-1,2-oxazole] |
| 0.347 | Clc1ccc(-n2c(Cn3cccn3)nnc2[C@H]2CC[C@H](Oc3ccccn3)CC2)cc1 [Example 4, trans-2-[4-[4-(4-Chlorophenyl)-5-(pyrazol-1-ylmethyl)-1,2,4-triazol-3-yl]cyclohexyl]oxypyridine] |
| 0.151 | Clc1ccc(-n2c(Cn3nccn3)nnc2[C@H]2CC[C@H](Oc3ccccn3)CC2)cc1 [Example 5, trans-2-[4-[4-(4-Chlorophenyl)-5-(triazol-2-ylmethyl)-1,2,4-triazol-3-yl]cyclohexyl]oxypyridine] |
| 0.871 | Clc1ccc(-n2c(Cn3nccn3)nnc2[C@H]2CC[C@@H](Oc3ccccn3)CC2)cc1 [Example 6, cis-2-[4-[4-(4-Chlorophenyl)-5-(triazol-2-ylmethyl)-1,2,4-triazol-3-yl]cyclohexyl]oxypyridine] |
| 3.63 | Clc1ccc(-n2c(Cn3ccnn3)nnc2[C@H]2CC[C@H](Oc3ccccn3)CC2)cc1 [Example 7, trans-2-[4-[4-(4-Chlorophenyl)-5-(triazol-1-ylmethyl)-1,2,4-triazol-3-yl]cyclohexyl]oxypyridine] |
| 3.63 | Clc1ccc(-n2c(Cn3ccnc3)nnc2[C@H]2CC[C@H](Oc3ccccn3)CC2)cc1 [Example 8, trans-2-[4-[4-(4-Chlorophenyl)-5-(imidazol-1-ylmethyl)-1,2,4-triazol-3-yl]cyclohexyl]oxypyridine] |
| 7.94 | Clc1ccc(-n2c(Cn3cncn3)nnc2[C@H]2CC[C@H](Oc3ccccn3)CC2)cc1 [Example 9, trans-2-[4-[4-(4-Chlorophenyl)-5-(1,2,4-triazol-1-ylmethyl)-1,2,4-triazol-3-yl]cyclohexyl]oxypyridine] |
| 9.12 | Clc1ccc(-n2c(Cn3cnnn3)nnc2[C@H]2CC[C@H](Oc3ccccn3)CC2)cc1 [Example 10, trans-2-[4-[4-(4-Chlorophenyl)-5-(tetrazol-1-ylmethyl)-1,2,4-triazol-3-yl]cyclohexyl]oxypyridine] |
